From paper PMC5587574, “Carbonyl reductase 1 catalyzes 20β-reduction of glucocorticoids, modulating receptor activation and metabolic complications of obesity” (Scientific Reports, 2017)

Target: T1, Carbonyl reductase 1 (CBR1) (Homo sapiens, UniProt P16152)
T1 construct: recombinant human CBR1
T1 sequence (P16152 2-277): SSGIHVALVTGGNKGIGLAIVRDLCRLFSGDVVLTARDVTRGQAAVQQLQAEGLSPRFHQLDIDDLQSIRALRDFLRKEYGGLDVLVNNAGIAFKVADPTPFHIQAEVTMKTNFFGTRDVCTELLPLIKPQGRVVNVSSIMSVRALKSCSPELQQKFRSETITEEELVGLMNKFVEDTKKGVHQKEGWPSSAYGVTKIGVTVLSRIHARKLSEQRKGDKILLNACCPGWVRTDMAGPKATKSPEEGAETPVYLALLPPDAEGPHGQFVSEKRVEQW
Experiment: conversion by recombinant enzyme, LC-MS/MS
Type: biochemical

Q: Which “conversion by recombinant enzyme, LC-MS/MS” value does the source give for `C[C@]12CCC(=O)C=C1CC[C@@H]1[C@@H]2[C@@H](O)C[C@@]2(C)[C@H]1CC[C@]2(O)C(=O)CO` [F, cortisol] here?
A: 1.2 ± 0.4 ng/mg CBR1 protein per minute
